Experimental findings from paper PMC8007111, “Novel Potent Muscarinic Receptor Antagonists: Investigation on the Nature of Lipophilic Substituents in the 5- and/or 6-Positions of the 1,4-Dioxane Nucleus” (Journal of Medicinal Chemistry, 2020) are described below.

Some results are limits rather than exact numbers.

What all share (conditions): [3H]NMS, CHO-K1 cell membranes; mean ± S.E.M.
The target in one test is T1, hM5 mAChR (Homo sapiens, UniProt P08912).
T1 construct: expressed in transfected cells; host or cells: CHO-K1 (membrane preparation)
T1 sequence (P08912 1-532): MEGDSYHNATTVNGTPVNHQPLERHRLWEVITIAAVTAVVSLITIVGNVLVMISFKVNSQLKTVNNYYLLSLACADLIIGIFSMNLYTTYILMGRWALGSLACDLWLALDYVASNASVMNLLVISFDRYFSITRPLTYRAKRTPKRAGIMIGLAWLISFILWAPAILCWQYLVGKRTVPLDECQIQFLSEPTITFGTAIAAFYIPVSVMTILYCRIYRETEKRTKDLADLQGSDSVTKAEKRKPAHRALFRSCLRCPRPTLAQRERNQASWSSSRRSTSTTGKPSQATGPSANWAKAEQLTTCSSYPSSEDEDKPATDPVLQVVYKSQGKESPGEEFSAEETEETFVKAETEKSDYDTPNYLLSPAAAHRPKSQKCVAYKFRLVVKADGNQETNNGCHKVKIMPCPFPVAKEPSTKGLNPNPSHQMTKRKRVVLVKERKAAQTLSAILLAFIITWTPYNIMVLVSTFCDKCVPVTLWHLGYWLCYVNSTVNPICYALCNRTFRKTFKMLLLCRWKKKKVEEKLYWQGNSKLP
The experiment in a line: [3H]NMS inhibition radioligand binding, hM5 in CHO-K1 cell membranes. As to the method: (§1) CHO-K1 cells stably transfected with the human muscarinic receptor subtypes (hM1–5) were grown in Dulbecco’s modified Eagle’s medium (DMEM) with nutrient mixture F12 (DMEM/F12, 50/50), containing 10% fetal bovine serum, penicillin (100 U/mL), streptomycin (100 U/mL), L-glutamine (4 mM), and geneticin (G-418, 50 μg/mL) at 37 °C in a 5% CO2 humidified incubator. […] Serum (0.7 mL) was added to inactivate the trypsin, and the cells were spun down by centrifuging at 300g for 5 min. The cells were then resuspended in ice-cold 25 mM sodium phosphate buffer containing 5 mM MgCl2, pH 7.4 (binding buffer) and homogenized using a cell disrupter (Ultra-Turrax, setting 3, 30 s). The homogenate was sedimented by centrifugation (17,000g, 15 min). The supernatant was discarded, and the resulting membrane pellets were resuspended with Ultra-Turrax in the same buffer to give a final protein concentration of 1–2 mg/mL. The protein content was determined by the method of Bradford (1976) with bovine serum albumin (Sigma) as a standard and stored at −80 °C.
(§2) Inhibition radioligand binding assays were conducted as previously described[48],[49] with 0.2 nM [^3H]NMS in binding buffer in a final volume of 250 μL. Nonspecific binding was defined in the presence of 10 μM atropine. Briefly, membrane fractions (about 25–70 μg/mL of protein) were incubated with radioligand and unlabeled test compounds for 2 h at r.t. Bound and free radioactivity were separated by filtering the assay mixture through UniFilter GF/B plates using a FilterMate Cell Harvester (PerkinElmer Life and Analytical Science). The filter bound radioactivity was counted by a TopCount NXT Microplate Scintillation Counter (PerkinElmer Life and Analytical Science). Data (cpm) were normalized to percentage-specific binding and analyzed using a four-parameter logistic equation in GraphPad Prism 5.02; IC50 values were determined, and Ki values were calculated.[59]

For another test, the target named is T2, hM1 mAChR (Homo sapiens, UniProt P11229).
T2 construct: expressed in transfected cells; host or cells: CHO-K1 (membrane preparation)
T2 sequence (P11229 1-460): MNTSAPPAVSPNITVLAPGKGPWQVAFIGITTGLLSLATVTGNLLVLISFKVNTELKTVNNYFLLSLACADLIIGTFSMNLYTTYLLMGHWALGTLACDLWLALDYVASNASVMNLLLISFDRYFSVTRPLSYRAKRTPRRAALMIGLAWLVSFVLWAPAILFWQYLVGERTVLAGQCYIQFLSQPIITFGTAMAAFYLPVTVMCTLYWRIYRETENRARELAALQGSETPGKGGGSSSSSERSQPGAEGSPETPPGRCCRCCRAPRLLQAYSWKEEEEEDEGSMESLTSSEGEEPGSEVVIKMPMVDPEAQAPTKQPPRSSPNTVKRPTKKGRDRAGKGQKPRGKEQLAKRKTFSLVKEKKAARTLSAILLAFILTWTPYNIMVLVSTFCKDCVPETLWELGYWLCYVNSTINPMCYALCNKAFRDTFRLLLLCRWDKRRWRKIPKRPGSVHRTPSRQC
Nature of the test: [3H]NMS inhibition radioligand binding, hM1 in CHO-K1 cell membranes. As to the method:
as §1, §2

The next test addresses T3, hM4 mAChR (Homo sapiens, UniProt P08173).
T3 construct: expressed in transfected cells; host or cells: CHO-K1 (membrane preparation)
T3 sequence (P08173 1-479): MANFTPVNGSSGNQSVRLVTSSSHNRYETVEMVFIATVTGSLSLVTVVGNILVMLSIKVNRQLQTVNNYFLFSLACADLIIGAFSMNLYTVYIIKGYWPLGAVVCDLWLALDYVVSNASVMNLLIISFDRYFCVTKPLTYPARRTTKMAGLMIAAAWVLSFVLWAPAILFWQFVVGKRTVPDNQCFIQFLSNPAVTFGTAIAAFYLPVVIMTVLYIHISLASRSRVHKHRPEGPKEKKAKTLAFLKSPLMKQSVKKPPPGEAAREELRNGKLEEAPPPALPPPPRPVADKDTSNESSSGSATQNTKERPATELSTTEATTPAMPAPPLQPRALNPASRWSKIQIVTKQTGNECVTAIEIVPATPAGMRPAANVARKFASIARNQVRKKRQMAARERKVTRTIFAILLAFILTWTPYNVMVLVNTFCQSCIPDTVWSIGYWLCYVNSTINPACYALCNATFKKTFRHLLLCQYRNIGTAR
The experiment in a line: [3H]NMS inhibition radioligand binding, hM4 in CHO-K1 cell membranes. As to the method: as §1, §2

For a further test, the target named is T4, hM3 mAChR (Homo sapiens, UniProt P20309).
T4 construct: expressed in transfected cells; host or cells: CHO-K1 (membrane preparation)
T4 sequence (P20309 whole entry): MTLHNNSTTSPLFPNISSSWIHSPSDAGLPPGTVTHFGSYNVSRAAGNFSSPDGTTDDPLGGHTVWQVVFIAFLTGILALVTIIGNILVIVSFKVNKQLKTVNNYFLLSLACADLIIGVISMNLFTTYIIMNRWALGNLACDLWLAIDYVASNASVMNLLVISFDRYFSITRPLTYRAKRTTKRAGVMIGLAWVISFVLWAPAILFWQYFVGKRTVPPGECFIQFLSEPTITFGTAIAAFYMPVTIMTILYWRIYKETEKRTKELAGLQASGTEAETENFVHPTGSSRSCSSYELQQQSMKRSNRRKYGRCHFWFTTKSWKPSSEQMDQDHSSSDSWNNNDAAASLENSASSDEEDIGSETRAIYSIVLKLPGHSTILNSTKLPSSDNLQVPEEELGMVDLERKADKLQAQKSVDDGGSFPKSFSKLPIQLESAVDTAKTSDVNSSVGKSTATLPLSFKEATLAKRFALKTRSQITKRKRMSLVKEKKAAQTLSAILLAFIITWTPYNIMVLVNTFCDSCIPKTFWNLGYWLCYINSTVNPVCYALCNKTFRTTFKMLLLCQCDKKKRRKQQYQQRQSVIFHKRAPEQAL
The experiment in a line: [3H]NMS inhibition radioligand binding, hM3 in CHO-K1 cell membranes. As for the experimental part: as §1, §2

For another test, the target named is T5, hM2 mAChR (Homo sapiens, UniProt P08172).
T5 construct: expressed in transfected cells; host or cells: CHO-K1 (membrane preparation)
T5 sequence (P08172 1-466): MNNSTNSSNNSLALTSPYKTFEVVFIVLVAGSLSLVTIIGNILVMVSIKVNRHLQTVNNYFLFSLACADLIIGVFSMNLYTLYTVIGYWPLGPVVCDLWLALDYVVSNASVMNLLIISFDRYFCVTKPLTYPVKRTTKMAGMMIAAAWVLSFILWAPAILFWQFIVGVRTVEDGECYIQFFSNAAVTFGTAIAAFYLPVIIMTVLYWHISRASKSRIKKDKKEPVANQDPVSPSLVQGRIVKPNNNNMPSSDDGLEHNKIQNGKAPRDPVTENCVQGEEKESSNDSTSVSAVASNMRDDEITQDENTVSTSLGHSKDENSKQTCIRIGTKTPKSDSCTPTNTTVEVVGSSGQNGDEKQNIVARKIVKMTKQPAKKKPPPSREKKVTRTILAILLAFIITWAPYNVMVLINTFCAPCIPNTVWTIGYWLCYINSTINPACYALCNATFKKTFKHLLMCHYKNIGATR
Nature of the test: [3H]NMS inhibition radioligand binding, hM2 in CHO-K1 cell membranes. As for the experimental part: as §1, §2

As for `C[N+](C)(C)C[C@@H]1CO[C@@H](c2ccccc2)CO1.[I-]` (relative stereo) [9b, 1-((2R*,5S*)-5-Phenyl-1,4-dioxan-2-yl)-N,N,N-trimethylmethanaminium Iodide], the “pKi hM5” value at hM5 mAChR was less than 5. Further, on hM1 mAChR, the “pKi hM1” value is given as less than 5. Also, the “pKi hM4” value on hM4 mAChR is reported as less than 5. The “pKi hM3” value on hM3 mAChR is given as less than 5. At hM2 mAChR, the “pKi hM2” value is on record as less than 5.
Take `C[N+](C)(C)C[C@@H]1CO[C@@](c2ccccc2)(C2CCCCC2)CO1.[I-]` (relative stereo) [11a, 1-((2R*,5R*)-5-Cyclohexyl-5-phenyl-1,4-dioxan-2-yl)-N,N,N-trimethylmethanaminium Iodide]: the “pKi hM5” value at hM5 mAChR is on record as 7.45 ± 0.08. The “pKi hM1” value on hM1 mAChR was 8.01 ± 0.06. Further, the “pKi hM4” value at hM4 mAChR is reported as 7.15 ± 0.09. Further, the “pKi hM3” value at hM3 mAChR is 7.43 ± 0.09. Also, the “pKi hM2” value at hM2 mAChR is 7.26 ± 0.08.
For `C[N+](C)(C)C[C@@H]1CO[C@](c2ccccc2)(C2CCCCC2)CO1.[I-]` (relative stereo) [11b, 1-((2R*,5S*)-5-Cyclohexyl-5-phenyl-1,4-dioxan-2-yl)-N,N,N-trimethylmethanaminium Iodide] the same measures were 7.32 ± 0.09, 7.81 ± 0.04, 7.23 ± 0.10, 7.36 ± 0.10 and 7.22 ± 0.11.
For `C[N+](C)(C)C[C@@H]1CO[C@H](C(c2ccccc2)c2ccccc2)CO1.[I-]` (relative stereo) [12a, 1-((2R*,5R*)-5-Benzhydryl-1,4-dioxan-2-yl)-N,N,N-trimethylmethanaminium Iodide] the same measures were 5.49 ± 0.06, 6.28 ± 0.08, 5.60 ± 0.06, 5.77 ± 0.03 and 5.87 ± 0.09.
For `C[N+](C)(C)C[C@@H]1CO[C@@H](C(c2ccccc2)c2ccccc2)CO1.[I-]` (relative stereo) [12b, 1-((2R*,5S*)-5-Benzhydryl-1,4-dioxan-2-yl)-N,N,N-trimethylmethanaminium Iodide] the same measures were 5.20 ± 0.01, 6.08 ± 0.07, 5.52 ± 0.06, 5.62 ± 0.11 and 6.06 ± 0.08.
For the compound `C[N+](C)(C)C[C@@H]1CO[C@H](c2ccc(-c3ccccc3)cc2)CO1.[I-]` (relative stereo) [13a, 1-((2R*,5R*)-5-([1,1′-Biphenyl]-4-yl)-1,4-dioxan-2-yl)-N,N,N-trimethylmethanaminium Iodide], the “pKi hM5” value at hM5 mAChR is less than 5. For the same compound, the “pKi hM1” value at hM1 mAChR was less than 5. For the same compound, the “pKi hM4” value on hM4 mAChR was less than 5. Besides, the “pKi hM3” value on hM3 mAChR is on record as less than 5. Moreover, the “pKi hM2” value at hM2 mAChR is on record as less than 5.
Take `C[N+](C)(C)C[C@@H]1CO[C@@H](c2ccc(-c3ccccc3)cc2)CO1.[I-]` (relative stereo) [13b, 1-((2R*,5S*)-5-([1,1′-Biphenyl]-4-yl)-1,4-dioxan-2-yl)-N,N,N-trimethylmethanaminium Iodide]: the “pKi hM5” value on hM5 mAChR is given as less than 5. On hM1 mAChR, the “pKi hM1” value was less than 5. Moreover, at hM4 mAChR, the “pKi hM4” value is less than 5. On hM3 mAChR, the “pKi hM3” value is less than 5. For the same compound, the “pKi hM2” value at hM2 mAChR stood at 5.49 ± 0.02.
Regarding `C[N+](C)(C)C[C@@H]1CO[C@H](c2ccc(Cc3ccccc3)cc2)CO1.[I-]` (relative stereo) [14a, 1-((2R*,5R*)-5-(4-Benzylphenyl)-1,4-dioxan-2-yl)-N,N,N-trimethylmethanaminium Iodide], at hM5 mAChR, the “pKi hM5” value was 5.53 ± 0.13. For the same compound, on hM1 mAChR, the “pKi hM1” value is on record as less than 5. Further, the “pKi hM4” value on hM4 mAChR is less than 5. In addition, the “pKi hM3” value at hM3 mAChR is given as 5.65 ± 0.12. Besides, on hM2 mAChR, the “pKi hM2” value was found to be 5.65 ± 0.05.
Turning to `C[N+](C)(C)C[C@@H]1CO[C@@H](c2ccc(Cc3ccccc3)cc2)CO1.[I-]` (relative stereo) [14b, 1-((2R*,5S*)-5-(4-Benzylphenyl)-1,4-dioxan-2-yl)-N,N,N-trimethylmethanaminium Iodide], the “pKi hM5” value on hM5 mAChR is listed as less than 5. Also, the “pKi hM1” value at hM1 mAChR is given as less than 5. Moreover, on hM4 mAChR, the “pKi hM4” value is less than 5. Further, the “pKi hM3” value at hM3 mAChR is given as less than 5. On hM2 mAChR, the “pKi hM2” value is less than 5.
`C[N+](C)(C)C[C@@H]1CO[C@H](c2ccc(Sc3ccccc3)cc2)CO1.[I-]` (relative stereo) [15a, 1-((2R*,5R*)-5-(4-(Phenylthio)phenyl)-1,4-dioxan-2-yl)-N,N,N-trimethylmethanaminium Iodide]: the “pKi hM5” value on hM5 mAChR turned out to be 6.00 ± 0.14. In addition, on hM1 mAChR, the “pKi hM1” value is on record as 5.43 ± 0.09. The “pKi hM4” value on hM4 mAChR was 5.70 ± 0.01. In addition, the “pKi hM3” value at hM3 mAChR is given as 6.01 ± 0.11. At hM2 mAChR, the “pKi hM2” value is reported as 6.70 ± 0.13.
Consider `C[N+](C)(C)C[C@@H]1CO[C@@H](c2ccc(Sc3ccccc3)cc2)CO1.[I-]` (relative stereo) [15b, 1-((2R*,5S*)-5-(4-(Phenylthio)phenyl)-1,4-dioxan-2-yl)-N,N,N-trimethylmethanaminium Iodide], for which the “pKi hM5” value on hM5 mAChR came out at 5.40 ± 0.15. At hM1 mAChR, the “pKi hM1” value was determined as 5.57 ± 0.07. Also, the “pKi hM4” value on hM4 mAChR turned out to be 5.14 ± 0.01. Besides, on hM3 mAChR, the “pKi hM3” value was determined as 5.35 ± 0.06. Moreover, at hM2 mAChR, the “pKi hM2” value is listed as 5.86 ± 0.04.
